pKi: −log10 of the molar value. Like-named read-outs stand apart in the source and are kept apart here.
Assays:
HA1 adenosine receptor = molecular target: T1, HA1 adenosine receptor (Homo sapiens, UniProt P30542); assay: Human adenosine A1 receptor affinity (Ki hA1); assay type: binding
T1 sequence (P30542 1-326): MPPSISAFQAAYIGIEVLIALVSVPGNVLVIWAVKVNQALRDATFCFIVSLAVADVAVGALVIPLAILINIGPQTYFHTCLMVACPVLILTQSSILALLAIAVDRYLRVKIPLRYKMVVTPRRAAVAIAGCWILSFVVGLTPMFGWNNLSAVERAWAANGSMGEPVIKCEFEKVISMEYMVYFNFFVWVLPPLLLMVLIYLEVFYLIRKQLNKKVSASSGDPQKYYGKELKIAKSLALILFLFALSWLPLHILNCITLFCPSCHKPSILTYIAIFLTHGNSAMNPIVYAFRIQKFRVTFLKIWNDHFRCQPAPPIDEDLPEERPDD

[1] = molecular target: T2, human adenosine A2A receptor (Homo sapiens, UniProt P29274); assay: Human adenosine A2A receptor [3H]-SCH-58261 binding assay
T2 construct: expressed in transfected cells; host or cells: CHO cells, Semliki Forest virus expression system; membrane preparation
T2 sequence (P29274 whole entry): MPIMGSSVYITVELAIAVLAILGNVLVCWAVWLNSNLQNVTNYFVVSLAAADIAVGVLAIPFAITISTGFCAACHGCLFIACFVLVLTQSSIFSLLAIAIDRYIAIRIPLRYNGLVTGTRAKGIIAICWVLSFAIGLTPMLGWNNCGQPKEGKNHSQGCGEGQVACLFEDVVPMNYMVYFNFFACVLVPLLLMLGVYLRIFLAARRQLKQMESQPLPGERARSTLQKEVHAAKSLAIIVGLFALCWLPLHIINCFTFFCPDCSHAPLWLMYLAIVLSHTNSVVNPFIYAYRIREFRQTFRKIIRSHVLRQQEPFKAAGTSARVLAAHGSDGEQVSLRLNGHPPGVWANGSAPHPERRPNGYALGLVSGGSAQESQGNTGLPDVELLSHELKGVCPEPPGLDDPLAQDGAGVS

[2] = affinity to human adenosine A1 receptor
[3] = affinity to human adenosine A2A receptor, read-out: Ki HA2A
[4] = calculated ratio of the affinity to the HA1 receptor to the HA2a receptor
[5] = recombinant human A2A in CHO cell membranes, [3H]-SCH-58261, Cheng-Prussoff, read-out: Ki hA2A

Row | SMILES | pKi (HA1 adenosine receptor; [2]) | pKi [1, 3] | selectivity (A1/A2a) [1, 4] | pKi (HA1 adenosine receptor) | selectivity (A1/A2a) ([1]; ratio KiHA1 divided by KiHA2A) | pKi [1, 5]
1 | CC1CC(C)CN(C(=O)c2cc(N)n3nc(-c4ccc(Br)o4)nc3c2)C1 (stereo not drawn) [Example 341, [5-Amino-2-(5-bromo-furan-2-yl)-[1,2,4]triazolo[1,5-a]pyridin-7-yl]-(3,5-dimethyl-piperidin-1-yl)-methanone] | 6.92 | 8.77 | 70.3 | – | – | –
2 | CCCCN(Cc1ccccc1)C(=O)c1cc(N)n2nc(-c3ccc[nH]3)nc2c1 [Example 84, 5-Amino-2-(1H-pyrrol-2-yl)-[1,2,4]triazolo[1,5-a]pyridine-7-carboxylic acid benzyl-butyl-amide] | 5.30 | 6.53 | 16.9 | – | – | –
3 | Nc1cc(C(=O)N2CCCC3CCCCC32)cc2nc(-c3ccc(Br)o3)nn12 (stereo not drawn) [Example 349, [5-Amino-2-(5-bromo-furan-2-yl)-[1,2,4]triazolo[1,5-a]pyridin-7-yl]-(octoahydro-quinolin-1-yl)-methanone] | 7.19 | 8.54 | 22.3 | – | – | –
4 | C=CCN(C)C(=O)c1cc(N)n2nc(-c3ccc(Br)o3)nc2c1 [Example 267, 5-Amino-2-(5-bromo-furan-2-yl)-[1,2,4]triazolo[1,5-a]pyridine-7-carboxylic acid allyl-methyl-amide] | 6.74 | 8.37 | 42.0 | – | – | –
5 | CCN(C(=O)c1cc(N)n2nc(-c3ccc(C)s3)nc2c1)C(C)C [Example 194, 5-Amino-2-(5-methyl-thiophen-2-yl)-[1,2,4]triazolo[1,5-a]pyridine-7-carboxylic acid ethyl-isopropyl-amide] | 6.61 | 7.25 | 4.4 | – | – | –
6 | Nc1cc(C(=O)N2CC=C(c3ccccc3)CC2)cc2nc(-c3ccc(Br)o3)nn12 [Example 312, [5-Amino-2-(5-bromo-furan-2-yl)-[1,2,4]triazolo[1,5-a]pyridin-7-yl]-(4-phenyl-3,6-dihydro-2H-pyridin-1-yl)-methanone] | 6.64 | 7.66 | 10.4 | – | – | –
7 | COc1ccc(CNC(=O)c2cc(N)n3nc(-c4nccs4)nc3c2)cc1 [Example 207, 5-Amino-2-thiazol-2-yl-[1,2,4]triazolo[1,5-a]pyridine-7-carboxylic acid 4-methoxy-benzylamide] | 6.27 | 6.73 | 2.8 | – | – | –
8 | CC(NC(=O)c1cc(N)n2nc(-c3ccccn3)nc2c1)c1ccccc1 (stereo not drawn) [Example 44, 5-Amino-2-pyridin-2-yl-[1,2,4]triazolo[1,5-a]pyridine-7-carboxylic acid (1-phenyl-ethyl)-amide] | 6.92 | 7.35 | 2.7 | – | – | –
9 | Nc1cc(C(=O)N2CCN(c3ccccc3)CC2)cc2nc(-c3ccc(Br)o3)nn12 [Example 353, [5-Amino-2-(5-bromo-furan-2-yl)-[1,2,4]triazolo[1,5-a]pyridin-7-yl]-(4-phenyl-piperazin-1-yl)-methanone] | 5.98 | 7.09 | 12.7 | – | – | –
10 | CCCCNC(=O)c1cc(N)n2nc(-c3ccc(C)s3)nc2c1 [Example 193, 5-Amino-2-(5-methyl-thiophen-2-yl)-[1,2,4]triazolo[1,5-a]pyridine-7-carboxylic acid butylamide] | 7.13 | 7.38 | 1.8 | – | – | –
11 | CCCCCCNC(=O)c1cc(N)n2nc(-c3ccc(OC)s3)nc2c1 [Example 63, 5-Amino-2-(5-methoxy-thiophen-2-yl)-[1,2,4]triazolo[1,5-a]pyridine-7-carboxylic acid hexylamide] | 6.61 | 6.74 | 1.4 | – | – | –
12 | Cc1ccc(-c2nc3cc(C(=O)NCc4ccccc4Br)cc(N)n3n2)s1 [Example 200, 5-Amino-2-(5-methyl-thiophen-2-yl)-[1,2,4]triazolo[1,5-a]pyridine-7-carboxylic acid 2-bromo-benzylamide] | 7.42 | 7.66 | 1.7 | – | – | –
13 | COc1ccccc1CNC(=O)c1cc(N)n2nc(-c3ccc[nH]3)nc2c1 [Example 93, 5-Amino-2-(1H-pyrrol-2-yl)-[1,2,4]triazolo[1,5-a]pyridine-7-carboxylic acid 2-methoxy-benzylamide] | 5.31 | 6.52 | 16.0 | – | – | –
14 | CCN(C(=O)c1cc(N)n2nc(-c3ccc(Br)o3)nc2c1)C1CCCCC1 [Example 345, 5-Amino-2-(5-bromo-furan-2-yl)-[1,2,4]triazolo[1,5-a]pyridine-7-carboxylic acid cyclohexyl-ethyl-amide] | 7.21 | 8.70 | 31.1 | – | – | –
15 | CC(C)N(C(=O)c1cc(N)n2nc(-c3ccc(Br)o3)nc2c1)C(C)C [Example 276, 5-Amino-2-(5-bromo-furan-2-yl)-[1,2,4]triazolo[1,5-a]pyridine-7-carboxylic acid diisopropylamide] | 6.64 | 8.00 | 22.6 | – | – | –
16 | Nc1cc(C(=O)N2CCCCC2)cc2nc(-c3cc(Br)co3)nn12 [Example 171, [5-Amino-2-(4-bromo-furan-2-yl)-[1,2,4]triazolo[1,5-a]pyridin-7-yl]-piperidin-1-yl-methanone] | 6.56 | 7.19 | 4.3 | – | – | –
17 | CN(C)C(=O)c1cc(N)n2nc(-c3ccc(Cl)o3)nc2c1 [Example 248, 5-Amino-2-(5-chloro-furan-2-yl)-[1,2,4]triazolo[1,5-a]pyridine-7-carboxylic acid dimethylamide] | 6.22 | 7.35 | 13.6 | – | – | –
18 | C=CCN(C(=O)c1cc(N)n2nc(-c3ccccn3)nc2c1)C1CCCC1 [Example 429, 5-Amino-2-pyridin-2-yl-[1,2,4]triazolo[1,5-a]pyridine-7-carboxylic acid allyl-cyclopentyl-amide] | – | – | – | 6.32 | 15.3 | 7.51
19 | CC1CCCN1C(=O)c1cc(N)n2nc(-c3ccccn3)nc2c1 (stereo not drawn) [Example 413, (5-Amino-2-pyridin-2-yl-[1,2,4]triazolo[1,5-a]pyridin-7-yl)-(2-methyl-pyrrolidin-1-yl)-methanone] | – | – | – | 5.85 | 37.8 | 7.42
20 | Nc1cc(C(=O)N2CC=CCC2)cc2nc(-c3ccc(Cl)o3)nn12 [Example 253] | 6.56 | 8.02 | 28.9 | – | – | –
21 | CC(C)N(Cc1ccccc1)C(=O)c1cc(N)n2nc(-c3ccc(Br)o3)nc2c1 [Example 26, 5-Amino-2-(5-bromo-furan-2-yl)-[1,2,4]triazolo[1,5-a]pyridine-7-carboxylic acid benzyl-isopropyl-amide] | 7.52 | 8.64 | 13.0 | – | – | –
22 | CCCN(C)C(=O)c1cc(N)n2nc(-c3nccs3)nc2c1 [Example 284, 5-Amino-2-thiazol-2-yl-[1,2,4]triazolo[1,5-a]pyridine-7-carboxylic acid methyl-propyl-amide] | 5.41 | 6.88 | 29.5 | – | – | –
23 | Cc1ccc(-c2nc3cc(C(=O)NCc4ccccc4Cl)cc(N)n3n2)s1 [Example 199, 5-Amino-2-(5-methyl-thiophen-2-yl)-[1,2,4]triazolo[1,5-a]pyridine-7-carboxylic acid 2-chloro-benzylamide] | 7.43 | 7.52 | 1.2 | – | – | –
24 | Cc1ccc(-c2nc3cc(C(=O)N(C)C4CCCCC4)cc(N)n3n2)o1 [Example 100, 5-Amino-2-(5-methyl-furan-2-yl)-[1,2,4]triazolo[1,5-a]pyridine-7-carboxylic acid cyclohexyl-methyl-amide] | 6.28 | 7.81 | 34.1 | – | – | –
25 | CCCCN(CC)C(=O)c1cc(N)n2nc(-c3ccccn3)nc2c1 [Example 421, 5-Amino-2-pyridin-2-yl-[1,2,4]triazolo[1,5-a]pyridine-7-carboxylic acid butyl-ethyl-amide] | – | – | – | 5.87 | 15.9 | 7.07
26 | Nc1cc(C(=O)NC2CCc3ccccc32)cc2nc(-c3ccccc3)nn12 (stereo not drawn) [Example 149, 5-Amino-2-phenyl-[1,2,4]triazolo[1,5-a]pyridine-7-carboxylic acid indan-1-ylamide] | 7.01 | 7.24 | 1.7 | – | – | –
27 | COC[C@@H]1CC[C@@H](COC)N1C(=O)c1cc(N)n2nc(-c3ccc(Br)o3)nc2c1 [Example 387, [5 -Amino-2-(5-bromo-furan-2-yl)-[1,2,4]triazolo[1,5-a]pyridin-7-yl]-(S,S-2,5-bis-methoxymethyl-pyrrolidin-1-yl)-methanone] | – | – | – | 5.60 | 21.5 | 6.93
28 | CN(C)CCN(C)C(=O)c1cc(N)n2nc(-c3ccc(Br)o3)nc2c1 [Example 279, 5-Amino-2-(5-bromo-furan-2-yl)-[1,2,4]triazolo[1,5-a]pyridine-7-carboxylic acid (2-dimethylamino-ethyl)-methyl-amide] | 5.97 | 6.91 | 8.5 | – | – | –
29 | Nc1cc(C(=O)NCc2ccccc2)cc2nc(-c3ccc(Cl)o3)nn12 [Example 238, 5-Amino-2-(5-chloro-furan-2-yl)-[1,2,4]triazolo[1,5-a]pyridine-7-carboxylic acid benzylamide] | 7.03 | 7.39 | 2.3 | – | – | –

From patent US6506772B1, “Substituted [1,2,4]triazolo[1,5a]pyridine derivatives with activity as adenosine receptor ligands” (Hoffmann-La Roche Inc., priority 2000, dated 2003)
